Here are results for 1 molecule from patent EP0818467B1, “Aligned peptide array and a rational and rapid method for the detection of a binding or interaction site of a protein by using the same” (NEC CORPORATION, priority 1996, dated 1998).

Test [1] has as its system third peptide segment, in which one amino acid had been replaced. The experiment in a line: aligned peptide array membrane with one amino acid replaced in the third peptide segment, autoradiography. Format: binding. The note with it: formula (IV): G (glycine) in the third peptide segment replaced by E (glutamate). As for the experimental part: (§1) The aligned peptide array membrane was reacted with a phorbol ester labeled with tritium (^3H) and then brought into contact with a photographic film. Thus, the reaction spot was identified by autoradiography.
In the third peptide segment detected in Example 2, one amino acid was replaced as shown in the following formula (IV). Excepting this modification, detection was carried out in the same manner as in Example 2. [formula]

In test [2] the test system is regulatory region of protein kinase C (PKC). The experiment in a line: aligned peptide array membrane reacted with tritium-labeled phorbol ester, autoradiography. It counts as binding. The note with it: peptide segments of formula (III); phorbol ester labeled with tritium (3H). Here is the method:
First of all, an amino acid sequence corresponding to a portion of the regulatory region of protein kinase C (PKC) was divided as shown in the following formula (III), and the corresponding peptide segments were synthesized. Then, an aligned peptide array membrane was prepared in the same manner as given in Example 1. [formula]
as §1

Regarding `CCCCCCCCCCCCCC(=O)O[C@@H]1[C@@H](C)[C@@]2(O)[C@@H](C=C(CO)C[C@]3(O)C(=O)C(C)=C[C@@H]23)[C@@H]2C(C)(C)[C@]12OC(C)=O` [phorbol ester], the entries for the “exposure to radiation at the position of the peptide segment” value in test [1] and in test [2] were “no exposure to radiation was observed at the position of the third peptide segment” and “exposure to radiation was observed at the position of the peptide segment corresponding to the third sequence segment of formula (III)”, respectively.
